According to patent US20230024991A1, “PRODRUGS OF ACYL CARNITINES” (ATAI Life Sciences AG, priority 2021, published 2023):

Columns and labels:
[1] = Determination of plasma half life, human plasma; assay type: in vitro ADME; conditions: 37° C. (Table 1), read-out: Human Mean t1/2
Procedure: (§1) Human, rat, and dog plasma were dialyzed against PBS buffer, pH 7.4 using Thermo Slide-A-Lyzer™ G2 Dialysis Cassettes for 24 hours at 4° C. prior to the experiment.
(§2) The assay was carried out in 96-well microtiter plates. Prodrugs and the reference compound (propantheline) at a final concentration of 1 μM were incubated separately in singlet at 37° C. with mouse, rat, dog, monkey or human plasma for 0, 30, 60, 120, 240, and 1440 min. At the end of each incubation time point, 300 μL of the quenching solutions (50% acetonitrile, 50% methanol, 0.05% formic acid) containing the internal standards (bucetin and d3-carnitine) was added to each well. The incubation plates were sealed, vortexed, and centrifuged at 10° C. for 15 minutes at 4000 rpm. The supernatant was transferred to fresh plates for LC/MS/MS analysis of the test compounds.
(§3) All samples were analyzed by LC/MS/MS using an AB Sciex API 4000 instrument (AB Sciex LLC, Framingham, Mass.), coupled to a Shimadzu LC-20AD LC Pump system (Shimadzu North America, Columbia, Md.). […]
(§4) The extent of metabolism was calculated based on the disappearance of prodrugs, compared to their initial concentration. The initial rates of clearance of prodrugs were calculated using linear regression plot of semi-log % remaining of prodrugs versus time. […]

[2] = Determination of plasma half life, rat plasma; assay type: in vitro ADME; conditions: pH 7.4, 37° C. (Table 4), read-out: Mean t1/2
Procedure: as §1, §2, §3, §4

[3] = Determination of plasma half life, dog plasma; assay type: in vitro ADME; conditions: pH 7.4, 37° C. (Table 4)
Procedure: as §1, §2, §3, §4

[4] = cited from earlier work
[5] = normal baseline conditions; cited from earlier work

| half-life at 1 μM [1] | half-life at 1 μM [2] | half-life at 1 μM [3] | SMILES | bioavailability of dietary L-carnitine ([4]; dietary, depends on the amount in the meal) | bioavailability ([4]; oral administration of large amounts of exogenous carnitine (1-6 g)) | tubular reabsorption in the kidney [5] |
| --- | --- | --- | --- | --- | --- | --- |
| 9.16 h | 8.79 h | 22.7 h | CCOC(=O)C[C@H](C[N+](C)(C)C)OC(=O)CC [Compound 3, (R)-4-ethoxy-N,N,N-trimethyl-4-oxo-2-(propionyloxy)butan-1-aminium chloride] | – | – | – |
| 0.927 h | 4.33 h | 11.7 h | CCCCC(=O)O[C@H](CC(=O)OCC)C[N+](C)(C)C [Compound 4, (R)-4-ethoxy-N,N,N-trimethyl-4-oxo-2-(pentanoyloxy)butan-1-aminium chloride] | – | – | – |
| – | – | – | C[N+](C)(C)C[C@H](O)CC(=O)[O-] [L-carnitine] | 54-87% | 5-18% | about 99% |
